Among the data in patent US10251892B2, “Bicyclic heterocycles as FGFR4 inhibitors” (Incyte Corporation, priority 2015, dated 2019) are FGFR1/FGFR3 and FGFR4/FGFR3 values, retold here.

Each structure is given as a SMILES string. A value given as a limit tells only on which side of the number the result lay.

In this experiment the target is FGFR3 enzyme (Homo sapiens (Human), UniProt P22607). Put plainly: FGFR Enzymatic Assay (peptide phosphorylation, FRET), FGFR3. The settings on record: IC50 ratio showing FGFR3 selectivity; pre-incubated for 4 hours. In kind it is biochemical. The procedure: The inhibitor potency of the exemplified compounds was measured in an enzyme assay that measures peptide phosphorylation using FRET measurements to detect product formation. Inhibitors were serially diluted in DMSO and a volume of 0.5 μL was transferred to the wells of a 384-well plate.
FGFR3 enzyme, sequence (P22607 23-806): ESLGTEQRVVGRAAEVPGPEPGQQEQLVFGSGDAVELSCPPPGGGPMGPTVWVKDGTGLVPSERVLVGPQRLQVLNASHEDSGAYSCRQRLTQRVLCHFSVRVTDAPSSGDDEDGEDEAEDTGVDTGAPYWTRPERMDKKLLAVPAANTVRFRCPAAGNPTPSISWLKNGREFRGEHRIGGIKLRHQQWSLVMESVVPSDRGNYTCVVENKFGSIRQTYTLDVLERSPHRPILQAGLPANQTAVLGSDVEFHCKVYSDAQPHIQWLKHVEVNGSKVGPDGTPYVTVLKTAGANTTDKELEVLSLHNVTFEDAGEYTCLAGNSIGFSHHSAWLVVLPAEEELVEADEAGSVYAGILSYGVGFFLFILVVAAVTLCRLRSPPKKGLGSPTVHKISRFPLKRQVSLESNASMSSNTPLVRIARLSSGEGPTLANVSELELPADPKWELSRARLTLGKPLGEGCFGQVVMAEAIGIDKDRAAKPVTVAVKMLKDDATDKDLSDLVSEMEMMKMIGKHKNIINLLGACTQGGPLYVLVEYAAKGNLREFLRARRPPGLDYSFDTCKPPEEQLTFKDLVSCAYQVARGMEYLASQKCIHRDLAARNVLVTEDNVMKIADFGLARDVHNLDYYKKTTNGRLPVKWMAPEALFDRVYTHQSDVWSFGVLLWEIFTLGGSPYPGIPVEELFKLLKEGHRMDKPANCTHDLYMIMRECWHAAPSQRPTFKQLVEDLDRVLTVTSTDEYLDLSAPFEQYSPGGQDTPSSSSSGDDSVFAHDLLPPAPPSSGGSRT
GraphPad prism3 was used to analyze the data.
As for `COc1cc(OC)c(F)c(N2Cc3cnc(-c4cn(C)nc4C)cc3N(Cc3cccnn3)C2=O)c1F` [Example 88, 3-(2,6-difluoro-3,5-dimethoxyphenyl)-7-(1,3-dimethyl-1H-pyrazol-4-yl)-1-(pyridazin-3-ylmethyl)-3,4-dihydropyrido[4,3-d]pyrimidin-2(1H)-one], the FGFR1/FGFR3 is recorded as above 5 and the FGFR4/FGFR3 is recorded as above 10.
The corresponding values for `CCN1C(=O)N(c2c(F)c(OC)cc(OC)c2F)Cc2cnc(-c3cn(CC)nc3C)cc21` [Example 168, 3-(2,6-difluoro-3,5-dimethoxyphenyl)-1-ethyl-7-(1-ethyl-3-methyl-1H-pyrazol-4-yl)-3,4-dihydropyrido[4,3-d]pyrimidin-2(1H)-one] are above 5 and above 3.
The corresponding values for `COc1cc(OC)c(F)c(N2Cc3cnc(-c4cn(C)nc4C)cc3N(C3CC3)C2=O)c1F` [Example 83, 1-cyclopropyl-3-(2,6-difluoro-3,5-dimethoxyphenyl)-7-(1,3-dimethyl-1H-pyrazol-4-yl)-3,4-dihydropyrido[4,3-d]pyrimidin-2(1H)-one] are above 5 and above 5.
In the same order, the values of `CCN1C(=O)N(c2c(F)c(OC)cc(OC)c2F)Cc2cnc(-c3ccc(CN4CC[C@H](C#N)C4)cc3)cc21` [Example 25, (S)-1-(4-(3-(2,6-difluoro-3,5-dimethoxyphenyl)-1-ethyl-2-oxo-1,2,3,4-tetrahydropyrido[4,3-d]pyrimidin-7-yl)benzyl)pyrrolidine-3-carbonitrile] are above 5 and above 5.
On to `COc1cc(OC)c(F)c(N2Cc3cnc(-c4cn(C)nc4C)cc3N(CC3CC3)C2=O)c1F` [Example 29, 1-(cyclopropylmethyl)-3-(2,6-difluoro-3,5-dimethoxyphenyl)-7-(1,3-dimethyl-1H-pyrazol-4-yl)-3,4-dihydropyrido[4,3-d]pyrimidin-2(1H)-one], for which the FGFR1/FGFR3 is given as above 1 and the FGFR4/FGFR3 is recorded as above 5.
The corresponding values for `COc1cc(OC)c(F)c(N2Cc3cnc(-c4cn(C5CCS(=O)(=O)C5)nc4C)cc3C3(CC3)C2=O)c1F` (centres unmarked) [Example 54, 2′-(2,6-difluoro-3,5-dimethoxyphenyl)-6′-[1-(1,1-dioxidotetrahydro-3-thienyl)-3-methyl-1H-pyrazol-4-yl]-1′,2′-dihydro-3′H-spiro[cyclopropane-1,4′-[2,7]naphthyridin]-3′-one] are above 5 and above 1.
In the same order, the values of `CCCn1cc(N2C(=O)N(c3c(F)c(OC)cc(OC)c3F)Cc3cnc(-c4cn(C)nc4C)cc32)cn1` [Example 132, 3-(2,6-difluoro-3,5-dimethoxyphenyl)-7-(1,3-dimethyl-1H-pyrazol-4-yl)-1-(1-propyl-1H-pyrazol-4-yl)-3,4-dihydropyrido[4,3-d]pyrimidin-2(1H)-one] are above 3 and above 5.
The corresponding values for `COc1cc(OC)c(F)c(N2Cc3cnc(-c4cn(C)nc4C)cc3N(c3cnc(C)cn3)C2=O)c1F` [Example 107, 3-(2,6-difluoro-3,5-dimethoxyphenyl)-7-(1,3-dimethyl-1H-pyrazol-4-yl)-1-(5-methylpyrazin-2-yl)-3,4-dihydropyrido[4,3-d]pyrimidin-2(1H)-one] are above 3 and above 10.
On to `COc1cc(OC)c(F)c(N2Cc3cnc(-c4cn(CCC#N)nc4C)cc3C3(CC3)C2=O)c1F` [Example 156, 3-(4-(2′-(2,6-difluoro-3,5-dimethoxyphenyl)-3′-oxo-2′,3′-dihydro-1′H-spiro[cyclopropane-1,4′-[2,7]naphthyridine]-6′-yl)-3-methyl-1H-pyrazol-1-yl)propanenitrile], for which the FGFR1/FGFR3 is on record as above 5 and the FGFR4/FGFR3 is reported as above 1.
In the same order, the values of `COc1cc(OC)c(F)c(N2Cc3cnc(-c4cn(C)nc4C)cc3N(c3cncc(C)n3)C2=O)c1F` [Example 87, 3-(2,6-difluoro-3,5-dimethoxyphenyl)-7-(1,3-dimethyl-1H-pyrazol-4-yl)-1-(6-methylpyrazin-2-yl)-3,4-dihydropyrido[4,3-d]pyrimidin-2(1H)-one] are above 5 and above 10.
The corresponding values for `COc1cc(CN2C(=O)N(c3c(F)c(OC)cc(OC)c3F)Cc3cnc(-c4cn(C)nc4C)cc32)ccn1` [Example 58, 3-(2,6-difluoro-3,5-dimethoxyphenyl)-7-(1,3-dimethyl-1H-pyrazol-4-yl)-1-((2-methoxypyridin-4-yl)methyl)-3,4-dihydropyrido[4,3-d]pyrimidin-2(1H)-one] are above 10 and above 10.
In the same order, the values of `CCn1cnc(-c2cc3c(cn2)CN(c2c(F)c(OC)cc(OC)c2F)C(=O)C32CC2)c1` [Example 53, 2′-(2,6-difluoro-3,5-dimethoxyphenyl)-6′-(1-ethyl-1H-imidazol-4-yl)-1′H-spiro[cyclopropane-1,4′-[2,7]naphthyridin]-3′(2′H)-one] are above 5 and above 5.
As to `CCN1C(=O)N(c2c(F)c(OC)cc(OC)c2F)Cc2cnc(-c3ccc(CC#N)cc3)cc21` [Example 180, 2-(4-(3-(2,6-difluoro-3,5-dimethoxyphenyl)-1-ethyl-2-oxo-1,2,3,4-tetrahydropyrido[4,3-d]pyrimidin-7-yl)phenyl)acetonitrile], the FGFR1/FGFR3 is recorded as above 5 and the FGFR4/FGFR3 is reported as above 5.
Consider `COc1cc(OC)c(F)c(N2Cc3cnc(-c4ccc(C5(C#N)CCC5)nc4)cc3N(c3cnn(C)c3)C2=O)c1F` [Example 188, 1-{5-[3-(2,6-difluoro-3,5-dimethoxyphenyl)-1-(1-methyl-1H-pyrazol-4-yl)-2-oxo-1,2,3,4-tetrahydropyrido[4,3-d]pyrimidin-7-yl]pyridin-2-yl}cyclobutanecarbonitrile], for which the FGFR1/FGFR3 is given as above 5 and the FGFR4/FGFR3 was above 5.
With `COc1cc(OC)c(F)c(N2Cc3cnc(-c4cn(C)nc4C)cc3N(c3cncnc3)C2=O)c1F` [Example 61, 3-(2,6-difluoro-3,5-dimethoxyphenyl)-7-(1,3-dimethyl-1H-pyrazol-4-yl)-1-(pyrimidin-5-yl)-3,4-dihydropyrido[4,3-d]pyrimidin-2(1H)-one], the FGFR1/FGFR3 is on record as above 10 and the FGFR4/FGFR3 is recorded as above 5.
The corresponding values for `COc1cc(OC)c(F)c(N2Cc3cnc(-c4cn(C)nc4C)cc3N(Cc3ccc(F)c(F)c3)C2=O)c1F` [Example 73, 3-(2,6-difluoro-3,5-dimethoxyphenyl)-1-(3,4-difluorobenzyl)-7-(1,3-dimethyl-1H-pyrazol-4-yl)-3,4-dihydropyrido[4,3-d]pyrimidin-2(1H)-one] are above 5 and above 10.
For `COc1ccc(CN2C(=O)N(c3c(F)c(OC)cc(OC)c3F)Cc3cnc(-c4cn(C)nc4C)cc32)cn1` [Example 59, 3-(2,6-difluoro-3,5-dimethoxyphenyl)-7-(1,3-dimethyl-1H-pyrazol-4-yl)-1-((6-methoxypyridin-3-yl)methyl)-3,4-dihydropyrido[4,3-d]pyrimidin-2(1H)-one], the FGFR1/FGFR3 is recorded as above 10 and the FGFR4/FGFR3 was above 10.
For the compound `COc1cc(OC)c(F)c(N2Cc3cnc(-c4ccccc4)cc3C3(CC3)C2=O)c1F` [Example 17, 2′-(2,6-difluoro-3,5-dimethoxyphenyl)-6′-phenyl-1′H-spiro[cyclopropane-1,4′-[2,7]naphthyridin]-3′(2′H)-one], the FGFR1/FGFR3 is above 10.
Consider `CCN1C(=O)N(c2c(F)c(OC)cc(OC)c2F)Cc2cnc(-c3cn(CC(=O)N4CCOCC4)nc3C)cc21` [Example 51, 3-(2,6-difluoro-3,5-dimethoxyphenyl)-1-ethyl-7-(3-methyl-1-(2-morpholino-2-oxoethyl)-1H-pyrazol-4-yl)-3,4-dihydropyrido[4,3-d]pyrimidin-2(1H)-one], for which the FGFR1/FGFR3 is listed as above 1 and the FGFR4/FGFR3 is above 1.
Turning to `COC(=O)N1CCC(N2C(=O)N(c3c(F)c(OC)cc(OC)c3F)Cc3cnc(-c4cn(C)nc4C)cc32)CC1` [Example 122, Methyl 4-(3-(2,6-difluoro-3,5-dimethoxyphenyl)-7-(1,3-dimethyl-1H-pyrazol-4-yl)-2-oxo-3,4-dihydropyrido[4,3-d]pyrimidin-1(2H)-yl)piperidine-1-carboxylate], the FGFR1/FGFR3 is above 5 and the FGFR4/FGFR3 is given as above 5.
Take `COc1cc(OC)c(F)c(N2Cc3cnc(-c4cn(C)nc4C)cc3N(c3cccc(-c4cnnn4C)c3)C2=O)c1F` [Example 89, 3-(2,6-difluoro-3,5-dimethoxyphenyl)-7-(1,3-dimethyl-1H-pyrazol-4-yl)-1-(3-(1-methyl-1H-1,2,3-triazol-5-yl)phenyl)-3,4-dihydropyrido[4,3-d]pyrimidin-2(1H)-one]: the FGFR1/FGFR3 was above 5 and the FGFR4/FGFR3 is on record as above 10.
In the same order, the values of `CCN1C(=O)N(c2c(F)c(OC)cc(OC)c2F)Cc2cnc(-c3ccc(C(=O)NC4CC4)nc3)cc21` [Example 176, N-cyclopropyl-5-(3-(2,6-difluoro-3,5-dimethoxyphenyl)-1-ethyl-2-oxo-1,2,3,4-tetrahydropyrido[4,3-d]pyrimidin-7-yl)picolinamide] are above 10 and above 5.
The corresponding values for `COc1cc(OC)c(F)c(N2Cc3cnc(-c4cn(C)nc4C)cc3N(Cc3cc(C)no3)C2=O)c1F` [Example 35, 3-(2,6-difluoro-3,5-dimethoxyphenyl)-7-(1,3-dimethyl-1H-pyrazol-4-yl)-1-((3-methylisoxazol-5-yl)methyl)-3,4-dihydropyrido[4,3-d]pyrimidin-2(1H)-one] are above 5 and above 10.
Regarding `COc1cc(OC)c(F)c(N2Cc3cnc(-c4cn(C)nc4C)cc3N(c3cccnc3)C2=O)c1F` [Example 86, 3-(2,6-difluoro-3,5-dimethoxyphenyl)-7-(1,3-dimethyl-1H-pyrazol-4-yl)-1-(pyridin-3-yl)-3,4-dihydropyrido[4,3-d]pyrimidin-2(1H)-one], the FGFR1/FGFR3 is listed as above 5 and the FGFR4/FGFR3 is above 10.
